Results: patent publication US7196192B2, “28-epirapalogs” (Ariad Gene Therapeutics, Inc., priority 1999, dated 2007)
Several values for one entry are separate records, joined by “and”; a condition that tells them apart may be missing. Equal values may be shown once. Read-outs that look alike come from different tables or passages of the source.

Assays:
[1] = target: T1, transcriptional switch components containing FKBP and 2098L mutant FRB domains (Homo sapiens, UniProt P42345+P62942); assay: transcription assay in engineered HD1080 cells expressing SEAP (txn 2098L); format: cell-based
T1 construct: transcriptional switchcomponents containing FKBP and 2098L mutant FRB domains, respectively; fused on or other part: The two switch components are separate chimeric proteins; Neither is given for this cell line
Excerpt: The ability of the rapalogs to multimerize chimeric proteins may be measured in cell-based assays by measuring the occurrence of an event triggered by such multimerization. For instance, one may use cells containing and capable of expressing DNA encoding a first chimeric protein comprising one or more FKBP-domains and one or more effector domains as well as DNA encoding a second chimeric protein containing an FRB domain and one or more effector domains capable, upon multimerization, of actuating a biological response. We prefer to use cells which further contain a reporter gene under the transcriptional control of a regulatory element (i.e., promoter) which is responsive to the multimerization of the chimeric proteins. The design and preparation of illustrative components and their use in so engineered cells is described in WO99/36553 and WO96/41865 and the other international patent applications referred to in this and the foregoing section. (See also W099/10510 for additional guidance on the design, assembly and delivery of nucleic acids to render cells and animals responsive to rapalogs of interest and for additional guidance on applications of such systems.) The cells are grown or maintained in culture. A rapalog is added to the culture medium and after a suitable incubation period (to permit gene expression and secretion, e.g. several hours or overnight) the presence of the reporter gene product is measured. Positive results, i.e., multimerization, correlates with transcription of the reporter gene as observed by the appearance of the reporter gene product. The reporter gene product may be a conveniently detectable protein (e.g. by ELISA) or may catalyze the production of a conveniently detectable product (e.g. colored). Materials and methods for producing appropriate cell lines for conducting such assays are disclosed in the international patent applications cited above in this section.
2. EC50 values of the various compounds was measured in a transcription assay using genetically engineered HD1080 cells which constitutively express transcriptional switch components containing FKBP and 2098L mutant FRB domains, respectively and which regulatably express secreted alkaline phosphatase (SEAP) in the presence of a compound which multimerizes the switch components. The assay is a literature assay. See WO 99/36553, e.g. Example 12, pages 120–121 (& FIG. 2D) […]

FKBP = FKBP (Homo sapiens, UniProt P62942); assay: FKBP competitive binding assay based on fluorescence polarization (FP); settings: competitive FP binding, methods of Example 2.5
Description: A Competitive Binding FP Assay is described in detail in WO99/36553 and WO96/41865. That assay permits the in vitro measurement of an IC50 value for a given compound which reflects its ability to bind to an FKBP-protein in competition with a labeled FKBP ligand, such as, for example, FK506.
(§1) A diverse group of C7-modified 28-epirapalogs were prepared as described in Example 4.

murine splenocyte = murine splenocyte assay for immunosuppressive activity; format: cell-based
Description: 3. Conventional murine splenocyte assay for immunosuppressive activity.
as §1

[2] = read-out: TXN 2098L EC50; cellular transcription assay, methods of Example 2.5
[3] = cellular transcription assay, methods of Example 2.5; read-out: TXN 2098L EC50

Chain of FKBP (P62942 whole entry): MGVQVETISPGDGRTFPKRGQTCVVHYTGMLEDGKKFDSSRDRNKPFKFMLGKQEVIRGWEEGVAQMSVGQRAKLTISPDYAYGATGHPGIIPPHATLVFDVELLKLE
T1 sequence (P62942 2-108 limits assumed, stated change not applied, other chains not shown): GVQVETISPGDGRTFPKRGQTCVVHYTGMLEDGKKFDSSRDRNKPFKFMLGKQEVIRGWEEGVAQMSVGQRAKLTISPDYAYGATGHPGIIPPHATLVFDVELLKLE

In the case of `COC1CC(CC(C)C2CC(=O)C(C)C=C(C)C(O)C(OC)C(=O)C(C)CC(C)C=CC=CC=C(C)C(SC(C)C)CC3CCC(C)C(O)(O3)C(=O)C(=O)N3CCCCC3C(=O)O2)CCC1O` (stereo not drawn) [28-epi-7S-isopropylthioether], the “TXN 2098L peak relative to rapamycin peak” value ([1]; superscript mark on EC50 cell) is reported as “(+) (peak was >125% rapamycin peak)” and the IC50 (FKBP; read-out: FKBP IC50) is reported as 15 nM and 21 nM.
`CO[C@@H]1C[C@H](C[C@@H](C)[C@@H]2CC(=O)[C@H](C)/C=C(\C)[C@H](O)[C@@H](OC)C(=O)[C@H](C)C[C@H](C)/C=C/C=C/C=C(\C)[C@H](Oc3ccccc3C)C[C@@H]3CC[C@@H](C)[C@@](O)(O3)C(=O)C(=O)N3CCCC[C@H]3C(=O)O2)CC[C@H]1O` [28-epi-7R-2′-methylphenyloxy] was tested, and the EC50 [1, 2] was 8 nM, the “TXN 2098L peak relative to rapamycin peak” value ([1]; superscript mark on EC50 cell) was “(+) (peak was >125% rapamycin peak)” and the IC50 (FKBP; FKBP IC50 (nM)) was 8.1 nM.
In the case of `CO[C@@H]1C[C@H](C[C@@H](C)[C@@H]2CC(=O)[C@H](C)/C=C(\C)[C@H](O)[C@@H](OC)C(=O)[C@H](C)C[C@H](C)/C=C/C=C/C=C(\C)[C@@H](N(C)S(=O)(=O)N(C)c3ccccc3)C[C@@H]3CC[C@@H](C)[C@@](O)(O3)C(=O)C(=O)N3CCCC[C@H]3C(=O)O2)CC[C@H]1O` [28-epi-7S-N-Me-methylphenylsulfamide], the EC50 [1, 3] is reported as 26 nM.
Compound `CCOC1CC2CCC(C)C(O)(O2)C(=O)C(=O)N2CCCCC2C(=O)OC(C(C)CC2CCC(O)C(OC)C2)CC(=O)C(C)C=C(C)C(O)C(OC)C(=O)C(C)CC(C)C=CC=CC=C1C` (stereo not drawn) [28-epi-7S-ethoxy] has an EC50 [1, 3] of 15 nM and an IC50 (murine splenocyte; Mus musculus, Splenocyte, read-out: Splenocyte IC50 (nM)) of 801 nM.
For `CO[C@@H]1C[C@H](C[C@@H](C)[C@@H]2CC(=O)[C@H](C)/C=C(\C)[C@H](O)[C@@H](OC)C(=O)[C@H](C)C[C@H](C)/C=C/C=C/C=C(\C)[C@@H](OC(C)C)C[C@@H]3CC[C@@H](C)[C@@](O)(O3)C(=O)C(=O)N3CCCC[C@H]3C(=O)O2)CC[C@H]1O` [28-epi-7S-isopropyloxy], the EC50 [1, 3] was 29 nM and the IC50 (FKBP; read-out: FKBP IC50) was 49 nM.
With `CO[C@@H]1C[C@H](C[C@@H](C)[C@@H]2CC(=O)[C@H](C)/C=C(\C)[C@H](O)[C@@H](OC)C(=O)[C@H](C)C[C@H](C)/C=C/C=C/C=C(\C)[C@H](N(C)S(=O)(=O)N(C)C)C[C@@H]3CC[C@@H](C)[C@@](O)(O3)C(=O)C(=O)N3CCCC[C@H]3C(=O)O2)CC[C@H]1O` [28-epi-7R-N-Me-dimethylsulfamide] the EC50 [1, 3] was 8 nM and the IC50 (murine splenocyte; mouse splenocyte assay, methods of Example 2.5, read-out: Splenocyte IC50) was 653 nM.
Work on `CO[C@H]1C[C@@H]2CC[C@@H](C)[C@@](O)(O2)C(=O)C(=O)N2CCCCC2C(=O)O[C@H]([C@H](C)C[C@@H]2CC[C@@H](O)[C@H](OC)C2)CC(=O)[C@H](C)/C=C(\C)[C@@H](O)[C@@H](OC)C(=O)[C@H](C)C[C@H](C)/C=C/C=C/C=C/1C` (some centres unmarked) [rapamycin, reference compound] yielded an IC50 (murine splenocyte; Mus musculus, Splenocyte, mouse splenocyte assay, methods of Example 2.5, read-out: Splenocyte IC50) of 0.1 to 0.3 nM and an IC50 (murine splenocyte; Mus musculus, Splenocyte, murine splenocyte assay, immunosuppressive activity, read-out: Splenocyte IC50) of 0.1 to 0.3 nM.
With `CCOC1CC2CCC(C)C(O)(O2)C(=O)C(=O)N2CCCCC2C(=O)OC(C(C)CC2CCC(O)C(OC)C2)CC(=O)C(C)C=C(C)C(O)C(OC)C(=O)C(C)CC(C)C=CC=CC=C1C` (stereo not drawn) [28-epi-7R-ethoxy] the EC50 [1, 3] was 33 nM.
Compound `CO[C@@H]1C[C@H](C[C@@H](C)[C@@H]2CC(=O)[C@H](C)/C=C(\C)[C@H](O)[C@@H](OC)C(=O)[C@H](C)C[C@H](C)/C=C/C=C/C=C(\C)[C@H](N(C)S(=O)(=O)N(C)c3ccccc3)C[C@@H]3CC[C@@H](C)[C@@](O)(O3)C(=O)C(=O)N3CCCC[C@H]3C(=O)O2)CC[C@H]1O` [28-epi-7R-N-Me-methylphenylsulfamide] has an EC50 [1, 3] of 8 nM and an IC50 (FKBP; read-out: FKBP IC50) of 74 nM.
In the case of `COC1CC(CC(C)C2CC(=O)C(C)C=C(C)C(O)C(OC)C(=O)C(C)CC(C)C=CC=CC=C(C)C(OCCC3CCCCC3)CC3CCC(C)C(O)(O3)C(=O)C(=O)N3CCCCC3C(=O)O2)CCC1O` (stereo not drawn) [28-epi-7S-cyclohexylethyloxy], the EC50 [1, 3] is reported as 76 nM.
`CO[C@@H]1C[C@H](C[C@@H](C)[C@@H]2CC(=O)[C@H](C)/C=C(\C)[C@H](O)[C@@H](OC)C(=O)[C@H](C)C[C@H](C)/C=C/C=C/C=C(\C)[C@@H](Oc3ccccc3C)C[C@@H]3CC[C@@H](C)[C@@](O)(O3)C(=O)C(=O)N3CCCC[C@H]3C(=O)O2)CC[C@H]1O` [28-epi-7S-2′-methylphenyloxy] was tested, and the EC50 [1, 2] was 14 nM and the IC50 (FKBP; FKBP IC50 (nM)) was 17 nM.
